Values joined by “and” are separate entries in the source; they are usually repeats but may differ in a detail not shown here. Identical values can stand only once. Inconclusive results and toxic doses are left out. Rule as the data show it: active = T/C of 150% or more; inactive = T/C below 125%.
Test system: L1210 leukemia ip in BDF1 mice, survival T/C
Experiment: NCI In Vivo Anticancer Drug Screen. Data for tumor model L1210 Leukemia (intraperitoneal) in B6D2F1 (BDF1) mice
Conditions: endpoint: mean survival time, higher = longer survival
Procedure, shortened: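 Each compound was tested against a transplantable tumor grown in mice. The endpoint was survival, with treated animals benchmarked against vehicle controls as a simple ratio.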

[1] = dose: 6.25 mg/kg/injection, schedule: Q04DX003 (ip), vehicle: saline
[2] = dose: 12.5 mg/kg/injection, schedule: Q04DX003 (ip), vehicle: saline
[3] = dose: 25.0 mg/kg/injection, schedule: Q04DX003 (ip), vehicle: saline
[4] = dose: 100.0 mg/kg/injection, schedule: Q01DX009 (ip), vehicle: saline with Tween-80
[5] = dose: 200.0 mg/kg/injection, schedule: Q01DX009 (ip), vehicle: saline with Tween-80
[6] = dose: 400.0 mg/kg/injection, schedule: Q01DX009 (ip), vehicle: saline with Tween-80
[7] = dose: 100.0 mg/kg/injection, schedule: Q04DX003 (ip), vehicle: saline with Tween-80
[8] = dose: 200.0 mg/kg/injection, schedule: Q04DX003 (ip), vehicle: saline with Tween-80
[9] = dose: 400.0 mg/kg/injection, schedule: Q04DX003 (ip), vehicle: saline with Tween-80
[10] = dose: 100.0 mg/kg/injection, schedule: Q01DX001 (ip), vehicle: saline
[11] = dose: 200.0 mg/kg/injection, schedule: Q01DX001 (ip), vehicle: saline
[12] = dose: 400.0 mg/kg/injection, schedule: Q01DX001 (ip), vehicle: saline
[13] = dose: 100.0 mg/kg/injection, schedule: Q04DX002 (ip), vehicle: other
[14] = dose: 200.0 mg/kg/injection, schedule: Q04DX002 (ip), vehicle: other
[15] = dose: 100.0 mg/kg/injection, schedule: Q01DX001 (ip), vehicle: Klucel (hydroxypropylcellulose) (HPC)
[16] = dose: 200.0 mg/kg/injection, schedule: Q01DX001 (ip), vehicle: Klucel (hydroxypropylcellulose) (HPC)

Measured: T/C

COC1(c2ccco2)OC1(C)C (stereo not given)
inactive: dose: 5.0 mg/kg/injection, schedule: Q01DX009 (ip), vehicle: saline with Tween-80 94 % of control | dose: 5.0 mg/kg/injection, schedule: Q04DX003 (ip), vehicle: saline with Tween-80 96 % of control | dose: 10.0 mg/kg/injection, schedule: Q01DX009 (ip), vehicle: saline with Tween-80 97 % of control | dose: 10.0 mg/kg/injection, schedule: Q04DX003 (ip), vehicle: saline with Tween-80 102 % of control | dose: 20.0 mg/kg/injection, schedule: Q01DX009 (ip), vehicle: saline with Tween-80 116 % of control | dose: 20.0 mg/kg/injection, schedule: Q04DX003 (ip), vehicle: saline with Tween-80 98 % of control

O=C1NC(=O)C2C3CCC(C3)C12 (stereo not given)
inactive: [1] 105 % of control | [2] 102 % of control | [3] 102 % of control

Cc1ccc(CCCC(=O)O)c(C)c1
inactive: [4] 105 % of control | [5] 92 % of control | [6] 96 % of control

CCOc1ccc(/C=N/NC(=O)c2ccccc2NC(=O)C2CC2)cc1OC
inactive: [4] 100 % of control | [7] 92 % of control | [5] 92 % of control | [8] 95 % of control | [6] 94 % of control | [9] 90 % of control

O=C(NNc1ccccc1)C(O)C(O)C(O)C(O)CO (stereo not given)
inactive: [4] 100 % of control | [5] 96 % of control | [6] 104 % of control

Cc1[nH]c(=O)nc2c1CCO2
inactive: [10] 98 % of control | [11] 104 % of control | [12] 101 % of control

CSCCNC(=O)C(=O)NCCSC
inactive: [13] 95 % of control | [14] 88 % of control | dose: 400.0 mg/kg/injection, schedule: Q04DX002 (ip), vehicle: other 98 % of control

O=C(O)C1CCCCC1C(=O)Nc1cccc(C(F)(F)F)c1 (stereo not given)
inactive: dose: 12.5 mg/kg/injection, schedule: Q01DX009 (ip), vehicle: saline with Tween-80 102 % of control | dose: 25.0 mg/kg/injection, schedule: Q01DX009 (ip), vehicle: saline with Tween-80 101 % of control | dose: 50.0 mg/kg/injection, schedule: Q01DX009 (ip), vehicle: saline with Tween-80 88 % of control and 92 % of control | [7] 102 % of control | [8] 92 % of control

CCCCN(CCCC)CC(O)c1cnc2c(Cl)cc(Cl)cc2c1Cl (stereo not given)
inactive: [4] 101 % of control | [7] 100 % of control | [5] 102 % of control | [8] 102 % of control | [9] 108 % of control

Cc1nc(C#N)c(C#N)nc1C
inactive: dose: 6.25 mg/kg/injection, schedule: Q01DX009 (ip), vehicle: Klucel (hydroxypropylcellulose) (HPC) 96 % of control | dose: 12.5 mg/kg/injection, schedule: Q01DX009 (ip), vehicle: Klucel (hydroxypropylcellulose) (HPC) 98 % of control | dose: 12.5 mg/kg/injection, schedule: Q04DX003 (ip), vehicle: Klucel (hydroxypropylcellulose) (HPC) 101 % of control | dose: 25.0 mg/kg/injection, schedule: Q04DX003 (ip), vehicle: Klucel (hydroxypropylcellulose) (HPC) 100 % of control

COc1cc2c(cc1OC(C)=O)C(=O)CCCC2
inactive: dose: 100.0 mg/kg/injection, schedule: Q04DX003 (ip), vehicle: Klucel (hydroxypropylcellulose) (HPC) 91 % of control | dose: 200.0 mg/kg/injection, schedule: Q04DX003 (ip), vehicle: Klucel (hydroxypropylcellulose) (HPC) 97 % of control | dose: 400.0 mg/kg/injection, schedule: Q04DX003 (ip), vehicle: Klucel (hydroxypropylcellulose) (HPC) 96 % of control

O=C(CCl)Nc1ccc(S(=O)(=O)F)cc1
inactive: dose: 12.5 mg/kg/injection, schedule: Q01DX009 (ip), vehicle: carboxymethylcellulose (CMC) 93 % of control | dose: 25.0 mg/kg/injection, schedule: Q01DX009 (ip), vehicle: carboxymethylcellulose (CMC) 88 % of control | dose: 50.0 mg/kg/injection, schedule: Q01DX009 (ip), vehicle: carboxymethylcellulose (CMC) 88 % of control | dose: 100.0 mg/kg/injection, schedule: Q04DX003 (ip), vehicle: carboxymethylcellulose (CMC) 96 % of control

CCOC(=O)/C=C(\COC)c1ccccc1
inactive: [10] 104 % of control | [11] 104 % of control | [12] 104 % of control

c1ccc2[nH]c(-c3c[nH]c4ccccc34)cc2c1
inactive: dose: 50.0 mg/kg/injection, schedule: Q01DX001 (ip), vehicle: saline 106 % of control | [10] 102 % of control | [11] 106 % of control

CC(C)(C)C1CCC2(CC1)CO2 (stereo not given)
inactive: [10] 98 % of control

COC1CCCCC1SCSC1CCCCC1OC (stereo not given)
inactive: [4] 90 % of control | [6] 88 % of control

CCS(=O)(=O)c1ccc2nnnn2n1
inactive: [1] 103 % of control | [2] 100 % of control | [3] 112 % of control

CCOC(=O)/C(O)=C(\C=N\C(N)=O)C(=O)OCC
inactive: dose: 100.0 mg/kg/injection, schedule: Q04DX003 (ip), vehicle: saline sonified 93 % of control | dose: 200.0 mg/kg/injection, schedule: Q04DX003 (ip), vehicle: saline sonified 103 % of control | dose: 400.0 mg/kg/injection, schedule: Q04DX003 (ip), vehicle: saline sonified 95 % of control

Cc1cc(O)c(O)c(C(C)(C)C)c1
inactive: [13] 102 % of control | [14] 87 % of control

CCOC(=O)C(CCC(C)=O)C1=NC(C)(C)CC(C)O1 (stereo not given)
inactive: dose: 100.0 mg/kg/injection, schedule: Q01DX009 (ip), vehicle: saline sonified 102 % of control | dose: 200.0 mg/kg/injection, schedule: Q01DX009 (ip), vehicle: saline sonified 109 % of control | dose: 400.0 mg/kg/injection, schedule: Q01DX009 (ip), vehicle: saline sonified 98 % of control

CN(C(=O)NCCCl)C1CCC(C(=O)O)CC1 (stereo not given)
inactive: [15] 92 % of control | [16] 88 % of control

C/C(=C/c1ccc(/C=C(\C)[N+](=O)[O-])cc1)[N+](=O)[O-]
inactive: dose: 10.0 mg/kg/injection, schedule: Q01DX001 (ip), vehicle: acetone 106 % of control

CC1(C)NC(=O)N(C(C)(C)C(=O)O)C1=O
inactive: dose: 100.0 mg/kg/injection, schedule: Q01DX001 (ip), vehicle: carboxymethylcellulose (CMC) 90 % of control | dose: 200.0 mg/kg/injection, schedule: Q01DX001 (ip), vehicle: carboxymethylcellulose (CMC) 95 % of control | dose: 400.0 mg/kg/injection, schedule: Q01DX001 (ip), vehicle: carboxymethylcellulose (CMC) 87 % of control

O=C(Nc1cccc2ccccc12)OC1CCCCC1Br (stereo not given)
inactive: dose: 200.0 mg/kg/injection, schedule: Q01DX001 (ip), vehicle: saline with Tween-80 89 % of control | dose: 400.0 mg/kg/injection, schedule: Q01DX001 (ip), vehicle: saline with Tween-80 89 % of control

Cc1ccc(S(N)(=O)=O)cc1S(N)(=O)=O
inactive: [15] 94 % of control | [16] 92 % of control | dose: 400.0 mg/kg/injection, schedule: Q01DX001 (ip), vehicle: Klucel (hydroxypropylcellulose) (HPC) 105 % of control

COc1ccc2c3c(c4cc(OC)c(OC)cc4c2c1)CN1CCC[C@H]1[C@@H]3O
inactive: dose: 0.57 mg/kg/injection, schedule: Q01DX Z (ip), vehicle: water 103 % of control | dose: 0.86 mg/kg/injection, schedule: Q01DX Z (ip), vehicle: water 106 % of control | dose: 1.3 mg/kg/injection, schedule: Q01DX Z (ip), vehicle: water 111 % of control | dose: 2.0 mg/kg/injection, schedule: Q01DX Z (ip), vehicle: water 119 % of control | dose: 9.0 mg/kg/injection, schedule: Q01DX015 (ip), vehicle: acid diluted with saline 118 % of control | dose: 12.0 mg/kg/injection, schedule: Q01DX015 (ip), vehicle: acid diluted with saline 112 % of control

Reference: PubChem BioAssay AID248 (DTP/NCI, 2004)
